Measurements as given in patent US20240158348A1, “HERBICIDAL CYCLIC AMIDES N-SUBSTITUTED WITH A HALOALKYLSULFONYLANILIDE GROUP” (FMC Corporation, priority 2021, published 2024).

What was measured:
Type in all cases: in vivo
[1] = system: ryegrass, Italian (Italian ryegrass, Lolium multiflorum); test: Test C preemergence, Italian ryegrass; settings: 0 is no effect, 100 is complete control
Summary of the method: (§1)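 Greenhouse pot test. Compounds in a non-phytotoxic solvent with surfactant were applied to a loam–sand soil mix either preemergence as a directed spray or postemergence to plants at the one- to two-leaf stage; 0–100 visual ratings followed after 10 or 12 days.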

[2] = system: oat, wild (wild oat, Avena fatua); test: Test C postemergence, wild oat; settings: visual injury, 0 to 100 scale (0 no effect, 100 complete control)
kochia (Bassia scoparia) = test: Test C preemergence, kochia; settings: 0 is no effect, 100 is complete control
Summary of the method: as §1

[3] = system: ducksalad (Heteranthera limosa); test: Test D flooded paddy test, ducksalad; set-up: key: 0 = no effect, 100 = complete control; settings: 250 g ai/ha, Flood; applied to paddy water at 2-leaf stage; visual rating after 13 days; scale 0 (no effect) to 100 (complete control)
Summary of the method: (§2)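 2-leaf plants; flood 3 cm over soil; cpd into paddy water; depth maintained; greenhouse 13 d; visual rating vs controls, 0 = no effect, 100 = complete control; dash = no result.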

[4] = system: goosegrass (Eleusine indica); test: Test C postemergence, goosegrass; settings: visual injury, 0 to 100 scale (0 no effect, 100 complete control)
Summary of the method: as §1

[5] = system: wheat (Triticum aestivum); test: Test C preemergence, wheat; settings: 0 is no effect, 100 is complete control
soybean (Glycine max) = test: Test C preemergence, soybean; settings: 0 is no effect, 100 is complete control
Summary of the method: as §1

[6] = system: barnyardgrass (Echinochloa crusgalli); test: Test D flooded paddy test, barnyardgrass; set-up: key: 0 = no effect, 100 = complete control; settings: 250 g ai/ha, Flood; applied to paddy water at 2-leaf stage; visual rating after 13 days; scale 0 (no effect) to 100 (complete control)
Summary of the method: as §2

[7] = system: foxtail, giant (giant foxtail, Setaria faberi); test: Test C preemergence, giant foxtail; settings: 0 is no effect, 100 is complete control
Summary of the method: as §1

Row | SMILES | Plant response rating (0 to 100 scale), Ryegrass, Italian ([1]; 31 g ai/ha Preemergence) | Plant response rating (0 to 100 scale), Ryegrass, Italian ([1]; 125 g ai/ha Preemergence) | Oat, Wild plant response rating ([2]; 31 g ai/ha Postemergence) | Oat, Wild plant response rating ([2]; 125 g ai/ha Postemergence) | Plant response rating (0 to 100 scale), Kochia (kochia (Bassia scoparia); 31 g ai/ha Preemergence) | Plant response rating (0 to 100 scale), Kochia (kochia (Bassia scoparia); 125 g ai/ha Preemergence) | Plant response rating, Ducksalad [3] | Goosegrass plant response rating ([4]; 31 g ai/ha Postemergence) | Goosegrass plant response rating ([4]; 125 g ai/ha Postemergence) | Plant response rating (0 to 100 scale), Wheat ([5]; 31 g ai/ha Preemergence) | Plant response rating (0 to 100 scale), Wheat ([5]; 125 g ai/ha Preemergence) | Plant response rating (0 to 100 scale), Soybean (soybean (Glycine max); 31 g ai/ha Preemergence) | Plant response rating (0 to 100 scale), Soybean (soybean (Glycine max); 125 g ai/ha Preemergence) | Plant response rating, Barnyardgrass [6] | Plant response rating (0 to 100 scale), Foxtail, Giant ([7]; 31 g ai/ha Preemergence) | Plant response rating (0 to 100 scale), Foxtail, Giant ([7]; 125 g ai/ha Preemergence)
1 | Cc1cc(C)c(N2CCC(OCC3CCCC3)C2=O)cc1NS(=O)(=O)C(F)(F)F (stereo not shown) [Compound 57] | 70 | 90 | 10 | 10 | 60 | 80 | 90 | 70 | 90 | 20 | 80 | 70 | 90 | 15 | 80 | 100
2 | C#CC(C)OC1CCN(c2cc(NS(=O)(=O)C(F)(F)F)c(C)cc2C)C1=O (stereo not shown) [Compound 58] | 90 | 100 | 60 | 90 | 80 | 90 | 80 | 100 | 100 | 90 | 100 | 100 | 100 | 90 | 100 | 100
3 | C=C(C)COC1CCN(c2cc(NS(=O)(=O)C(F)(F)F)c(C)cc2C)C1=O (stereo not shown) [Compound 59] | 30 | 100 | 30 | 90 | 80 | 100 | 80 | 70 | 90 | 40 | 100 | 60 | 90 | 60 | 100 | 100
4 | Cc1c(NS(=O)(=O)C(F)(F)F)cc(N2CCC(OCC3CCC3)C2=O)c(C)c1F (stereo not shown) [Compound 64] | 50 | 90 | 0 | 10 | 70 | 90 | 80 | 30 | 70 | 20 | 70 | 40 | 90 | 25 | 100 | 100
